Experimental data taken from paper PMC11758220, “Identification of a Privileged Scaffold for Inhibition of Sterol Transport Proteins through the Synthesis and Ring Distortion of Diverse, Pseudo-Natural Products” (ACS Central Science, 2025).

Columns and labels:
Aster-A = target: T1, Aster-A (Homo sapiens, UniProt Q96CP6); test: Differential scanning fluorimetry (DSF), Aster-A; format: binding; conditions: maximal thermal shift
T1 construct: Aster-A(359-547); GST (PreScission-cleavable) (N, cleaved yes); made in house; host or cells: E. coli OverExpress C41
T1 sequence (Q96CP6 359-547): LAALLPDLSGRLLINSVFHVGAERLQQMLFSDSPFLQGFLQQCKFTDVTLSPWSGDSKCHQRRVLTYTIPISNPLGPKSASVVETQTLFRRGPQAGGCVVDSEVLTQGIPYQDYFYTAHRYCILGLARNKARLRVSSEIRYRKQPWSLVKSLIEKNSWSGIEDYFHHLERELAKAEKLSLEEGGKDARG
Source text: Protein expression constructs
Human ASTER domains of Aster-A(359-547), -B(364-552) and -C(318-504) were subcloned into a pGEX-6p-2rbs vector, thus introducing the cloning artifact ‘GPLGS’.3 The pGEX-6P-1-GST-OSBP(377- […]
a gift from James H. Hurley (University of California).4 The pHIS_2His6_Thrombin_STARD4(2-205;C75S) plasmid was a gift from Young Jun Im (Chonnam National University).5 STARD5A was a gift from Nicola Burgess-Brown (Addgene plasmid #42392; http://n2t.net/addgene:42392; […]
Protein expression and purification […]
vectors including an N-terminal PreScission-cleavable glutathione S-transferase (GST)-tag were expressed in Escherichia coli (E. coli) OverExpress C41 in Terrific Broth (TB) medium for 16 h at 18 °C after the induction with 0.1 mM isopropyl β-D-1-thiogalactopyranoside (IPTG). Cells were harvested at 3500 × g for 15 minutes and lysed by sonication in buffer containing 50 mM HEPES pH 7.5, 300 mM NaCl, 10 %v/v glycerol, 5 mM dithiothreitol (DTT), 0.1 %v/v Triton X-100 and protease inhibitor mix HP plus (Serva). The lysate was purified by affinity chromatography on a GSTrap FF column (Cytiva) using an ÄKTA Start (Cytiva) in buffer containing 50 mM HEPES pH 7.5, 300 mM NaCl, 10 %v/v glycerol, 5 mM DTT and 0.01 %v/v Triton X-100. The GST-tag was cleaved overnight on the column at 4 °C. […]

STARD3 = target: T2, STARD3 (Homo sapiens, UniProt Q14849); set-up: method as in Depta et al.[43]; conditions: data reproduced; ref Depta et al.[43]; read-out: STARD3 Kd,app (DSF); cited from earlier work
T2 construct: STARD3(216-444); made in house; host or cells: E. coli BL21(DE3)
T2 sequence (Q14849 216-444): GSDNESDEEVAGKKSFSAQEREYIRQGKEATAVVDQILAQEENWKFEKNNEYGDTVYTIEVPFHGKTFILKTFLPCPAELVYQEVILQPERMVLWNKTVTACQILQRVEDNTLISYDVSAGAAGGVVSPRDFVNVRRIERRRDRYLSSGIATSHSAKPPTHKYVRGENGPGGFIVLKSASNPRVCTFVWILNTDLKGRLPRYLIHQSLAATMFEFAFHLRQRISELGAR

Row | SMILES | Aster-A (DSF) ΔTmmax (Aster-A) [°C] | Kd (STARD3) [µM]
1 | CC12CCC3CC1CCC21C(=Nc2ccc(N4CCOCC4)cc21)O3 (single isomer, unassigned; (-)) [(−)-19a] | 7.5 | 
2 | CC(C)(C)OC(=O)N1CCN(c2ccc3c(c2)C24CCC5CC(CCC52C)OC4=N3)CC1 (stereo not drawn) [Compound 19e] | 11.8 | 
3 | CCN(CC)CCO[C@H]1CC[C@@]2(C)C(=CC[C@@H]3[C@@H]2CC[C@]2(C)C(=O)CC[C@@H]32)C1 [Compound U18666A, reference compound] |  | > 30
